According to the supplement of paper PMC10307832:

Experiments:
Experiment in all cases: relative viability (nuclei count vs DMSO), 5 days (fraction); higher = more cells survive
Bosutinib + Bortezomib = compound: COc1cc(Nc2c(C#N)cnc3cc(OCCCN4CCN(C)CC4)c(OC)cc23)c(Cl)cc1Cl [Bosutinib] + CC(C)C[C@H](NC(=O)[C@H](Cc1ccccc1)NC(=O)c1cnccn1)B(O)O [Bortezomib] (partner 0.002 µM)
Method in brief: (§1)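 Nuclei were stained with Hoechst during a one-step fixation (final 0.05% Triton X-100, 1% formaldehyde, 1 ug/ml Hoechst) carried out 5 days after dosing, then counted on 4× images. The cells, lung cancer lines in 1536-well plates, had been dosed by pin tool the day after seeding with one drug alone or a fixed anchor-drug dose plus five library-drug doses (not always all listed) in √10 steps. Relative viability is the nuclei count in treated wells divided by that in vehicle wells, and each value is the median of duplicate plates.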

Bosutinib + Navitoclax = compound: COc1cc(Nc2c(C#N)cnc3cc(OCCCN4CCN(C)CC4)c(OC)cc23)c(Cl)cc1Cl [Bosutinib] + CC1(C)CCC(c2ccc(Cl)cc2)=C(CN2CCN(c3ccc(C(=O)NS(=O)(=O)c4ccc(N[C@H](CCN5CCOCC5)CSc5ccccc5)c(S(=O)(=O)C(F)(F)F)c4)cc3)CC2)C1 [Navitoclax] (partner 0.5 µM)
Method in brief: as §1

Bosutinib + OSI-027 = compound: COc1cc(Nc2c(C#N)cnc3cc(OCCCN4CCN(C)CC4)c(OC)cc23)c(Cl)cc1Cl [Bosutinib] + COc1cccc2cc(-c3nc([C@H]4CC[C@H](C(=O)O)CC4)n4ncnc(N)c34)[nH]c12 [OSI-027] (partner 0.5 µM)
Method in brief: as §1

Bosutinib + Lapatinib = compound: COc1cc(Nc2c(C#N)cnc3cc(OCCCN4CCN(C)CC4)c(OC)cc23)c(Cl)cc1Cl [Bosutinib] + CS(=O)(=O)CCNCc1ccc(-c2ccc3ncnc(Nc4ccc(OCc5cccc(F)c5)c(Cl)c4)c3c2)o1 [Lapatinib] (partner 2 µM)
Method in brief: as §1

Bosutinib + Pictilisib = compound: COc1cc(Nc2c(C#N)cnc3cc(OCCCN4CCN(C)CC4)c(OC)cc23)c(Cl)cc1Cl [Bosutinib] + CS(=O)(=O)N1CCN(Cc2cc3nc(-c4cccc5[nH]ncc45)nc(N4CCOCC4)c3s2)CC1 [Pictilisib] (partner 1 µM)
Method in brief: as §1

Cell Line	relative viability (Bosutinib + Bortezomib; first compound 0.01 µM)	relative viability (Bosutinib + Bortezomib; first compound 0.03162 µM)	relative viability (Bosutinib + Bortezomib; first compound 0.1 µM)	relative viability (Bosutinib + Bortezomib; first compound 1 µM)	relative viability (Bosutinib + Navitoclax; first compound 0.01 µM)	relative viability (Bosutinib + Navitoclax; first compound 0.03162 µM)	relative viability (Bosutinib + Navitoclax; first compound 0.1 µM)	relative viability (Bosutinib + Navitoclax; first compound 1 µM)	relative viability (Bosutinib + OSI-027; first compound 0.01 µM)	relative viability (Bosutinib + OSI-027; first compound 0.03162 µM)	relative viability (Bosutinib + OSI-027; first compound 0.1 µM)	relative viability (Bosutinib + OSI-027; first compound 1 µM)	relative viability (Bosutinib + Lapatinib; first compound 0.01 µM)	relative viability (Bosutinib + Lapatinib; first compound 0.03162 µM)	relative viability (Bosutinib + Lapatinib; first compound 0.1 µM)	relative viability (Bosutinib + Lapatinib; first compound 1 µM)	relative viability (Bosutinib + Pictilisib; first compound 0.01 µM)	relative viability (Bosutinib + Pictilisib; first compound 0.03162 µM)	relative viability (Bosutinib + Pictilisib; first compound 0.1 µM)	relative viability (Bosutinib + Pictilisib; first compound 1 µM)
NCI-H1792	0.991	0.95	0.974	0.884	0.68	0.682	0.67	0.619	0.692	0.706	0.751	0.688	0.892	0.866	0.918	0.866	0.299	0.27	0.367	0.332
NCI-H2087	0.809	1.02	0.876	1.03	0.905	0.926	0.972	1.04	0.685	0.701	0.727	0.727	0.956	1.07	1.1	1.09	0.753	0.865	0.972	0.798
H3255	0.659	0.774	0.85	0.493	0.669	0.574	0.485	0.218	0.558	0.653	0.642	0.412	0.251	0.238	0.235	0.258	0.488	0.49	0.44	0.235
NCI-H23	1	1.21	1.04	1.05	0.904	0.742	0.869	0.764	0.583	0.605	0.601	0.533	1.09	1.06	1.2	1.11	0.523	0.503	0.531	0.481
HCC-827	1.03	1	1.03	0.928	1	0.986	1.04	0.933	0.784	0.828	0.872	0.574	0.167	0.25	0.19	0.169	0.971	0.763	1.12	0.749
HCC-78	0.551	0.486	0.428	0.429	0.798	0.737	0.752	0.661	0.361	0.362	0.353	0.358	0.468	0.798	0.817	0.7	0.2	0.196	0.269	0.301
UMC-11	0.683	0.778	0.718	0.666	0.256	0.316	0.333	0.33	0.48	0.478	0.423	0.402	1.1	1.03	1.03	0.821	0.889	0.81	0.875	0.764
NCI-H1975	0.432	0.399	0.424	0.388	1	1.06	1.1	0.991	0.735	0.761	0.697	0.534	0.907	0.842	0.839	0.712	0.283	0.318	0.338	0.253
COR-L23	1.07	1.03	1.01	1.01	1.17	1.06	0.959	1.06	0.754	0.732	0.75	0.778	1.01	0.892	1.04	1.08	0.893	0.826	0.813	0.81
CAL-12T	0.888	1.15	1.18	1.01	1.23	1.16	1.09	1.12	0.735	0.637	0.803	0.565	0.755	0.706	0.82	0.551	0.31	0.496	0.46	0.409
SW 1573	1.05	1.06	0.917	1.02	0.996	0.998	0.979	0.919	0.695	0.67	0.656	0.612	1.32	1.08	1.14	0.935	0.508	0.516	0.492	0.432
NCI-H2126	1.06	1.1	1.07	1.11	0.797	0.904	0.85	0.776	0.678	0.784	0.753	0.688	0.742	0.718	0.724	0.701	0.496	0.517	0.522	0.506
